We go through 39 compounds from patent US10287252B2, “Inhibitors of tryptophan-2,3-dioxygenase or indoleamine-2,3-dioxygenase” (IOmet Pharma Ltd., priority 2014, dated 2019).

One assay has as its target IDO (Homo sapiens, UniProt P14902). The experiment in a line: SKOV3 Kynurenine cell based assay. Also noted: IDO expression was induced in the SKOV3 cells by the addition of 500 ng/ml IFN-γ; endogenous in cells; host or cells: SKOV3 (human ovarian adenocarcinoma), induced with IFN-γ. To be noted: SKOV3 (human ovarian adenocarcinoma) cells, IDO induced by 500 ng/ml IFN-γ, 500 μM L-tryptophan, 48 hours; for IC50: read-out: SKOV3 Kynurenine cell based assay pIC50 (converted). As for the experimental part:
(§1) Exemplary compounds of the invention were prepared, and tested to determine their effect as TDO and/or IDO inhibitors. Two different assays were employed: 1. a cell-based assay for detecting the effect of test compounds on kynurenine production in two different cancer cell types. This assay utilised cancer cells which expressed either TDO or IDO and as such was used as a means of testing compound activity at these two enzymes in a cell-based context. 2. a TDO and IDO biochemical coupled assay which utilised recombinantly produced and purified TDO and IDO enzymes in combination with the enzyme formamidase. This coupled enzyme system allowed conversion of N-formylkynurenine produced by TDO or IDO activity to kynurenine which was then quantified by fluorescence following addition of Erhlich's Reagent The protocols for these are set out below.
(§2) Cell Based Assay for Detection of Kynurenine Produced by TDO and/or IDO
(§3) A172 (human glioblastoma) and SKOV3 (human ovarian adenocarcinoma) cells were seeded in a 96 well plate at 30,000 or 40,000 cells per well respectively in phenol red-free RPMI supplemented with 10% FCS, 2 mM L-glutamine and 500 μM L-tryptophan. IDO expression was induced in the SKOV3 cells by the addition of 500 ng/ml IFN-γ. Cells were incubated at 37° C. with or without the addition of test compound. After 48 hours, the cells were removed by centrifugation and Erhlich's reagent was added to the supernatant. The Erhlich's reagent was incubated for 5 minutes before the absorbance was read at 490 nm.

A further assay deals with TDO (Homo sapiens, UniProt P48775). Kind of assay: A172 Kynurenine cell based assay. More on the design: This assay utilised cancer cells which expressed either TDO or IDO; endogenous in cells; host or cells: A172 (human glioblastoma). To be noted: A172 (human glioblastoma) cells, 500 μM L-tryptophan, 48 hours, kynurenine by Erhlich's reagent; for IC50: read-out: A172 Kynurenine cell based assay pIC50 (converted). The method, then: as §1, §2, §3

Bounds are passed on as bounds.

IDO, sequence (P14902 whole entry): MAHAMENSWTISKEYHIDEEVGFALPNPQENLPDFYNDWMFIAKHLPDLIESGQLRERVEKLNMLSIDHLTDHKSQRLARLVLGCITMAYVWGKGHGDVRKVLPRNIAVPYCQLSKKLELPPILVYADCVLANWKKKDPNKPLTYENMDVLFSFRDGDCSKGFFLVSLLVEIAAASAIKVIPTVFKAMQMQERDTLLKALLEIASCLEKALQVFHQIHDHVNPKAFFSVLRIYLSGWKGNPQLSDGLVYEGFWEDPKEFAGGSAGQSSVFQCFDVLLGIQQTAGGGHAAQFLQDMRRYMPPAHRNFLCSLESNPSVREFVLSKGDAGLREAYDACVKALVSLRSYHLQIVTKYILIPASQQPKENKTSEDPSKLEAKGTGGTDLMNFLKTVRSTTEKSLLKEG
TDO, sequence (P48775 whole entry): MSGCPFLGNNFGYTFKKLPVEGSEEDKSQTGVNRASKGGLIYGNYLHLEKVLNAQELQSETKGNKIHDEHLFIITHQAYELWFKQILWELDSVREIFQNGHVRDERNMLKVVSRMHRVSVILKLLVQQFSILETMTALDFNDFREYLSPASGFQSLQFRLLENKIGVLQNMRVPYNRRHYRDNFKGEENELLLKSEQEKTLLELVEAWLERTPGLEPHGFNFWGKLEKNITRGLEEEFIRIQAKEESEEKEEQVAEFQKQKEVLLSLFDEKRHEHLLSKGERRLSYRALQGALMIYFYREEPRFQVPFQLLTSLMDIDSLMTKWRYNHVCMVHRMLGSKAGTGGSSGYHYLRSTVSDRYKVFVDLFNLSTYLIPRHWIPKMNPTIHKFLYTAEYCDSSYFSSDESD

For the compound `O=S(=O)(Nc1cccc2cnccc12)c1cccc2cccnc12` [Compound 30], the “SKOV3 Kynurenine cell based assay pIC50” value at IDO is recorded as “+ (+ = pIC50 4.00-4.49)”. Also, the “A172 Kynurenine cell based assay pIC50” value at TDO is listed as “+/− (+/− = pIC50 <4.00)”.
The corresponding values for `O=S(=O)(Nc1ccccc1)c1cccc2cnccc12` [Compound 44] are “++ (++ = pIC50 4.50-5.49)” and “+ (+ = pIC50 4.00-4.49)”.
For `CC(C)S(=O)(=O)Nc1cccc2cnccc12` [Compound 37] the same measures were “+/− (+/− = pIC50 <4.00)” and “+ (+ = pIC50 4.00-4.49)”.
With `CC(=O)N1CCN(c2cccc3cnccc23)CC1` [Compound 48], the “SKOV3 Kynurenine cell based assay pIC50” value on IDO is recorded as “+ (+ = pIC50 4.00-4.49)”. The “A172 Kynurenine cell based assay pIC50” value on TDO is recorded as “+/− (+/− = pIC50 <4.00)”.
In the case of `Nc1nccc2c(NS(=O)(=O)c3ccccc3)cccc12` [Compound 40], on IDO, the “SKOV3 Kynurenine cell based assay pIC50” value is given as “+ (+ = pIC50 4.00-4.49)”. For the same compound, the “A172 Kynurenine cell based assay pIC50” value at TDO is on record as “+ (+ = pIC50 4.00-4.49)”.
Regarding `O=S(=O)(Nc1cccc2cnccc12)c1ccc(Cl)cc1` [Compound 12], on IDO, the “SKOV3 Kynurenine cell based assay pIC50” value is “++ (++ = pIC50 4.50-5.49)”. Besides, on TDO, the “A172 Kynurenine cell based assay pIC50” value was “++ (++ = pIC50 4.50-5.49)”.
Turning to `O=S(=O)(Nc1cccc2ccncc12)c1ccc(-c2ccccc2)cc1` [Compound 54], the “SKOV3 Kynurenine cell based assay pIC50” value at IDO is given as “+ (+ = pIC50 4.00-4.49)”. Besides, the “A172 Kynurenine cell based assay pIC50” value on TDO is reported as “+ (+ = pIC50 4.00-4.49)”.
Consider `O=C(Nc1cccc2cnccc12)c1ccccc1` [Compound 7], for which, on IDO, the “SKOV3 Kynurenine cell based assay pIC50” value is listed as “+ (+ = pIC50 4.00-4.49)”. Besides, the “A172 Kynurenine cell based assay pIC50” value at TDO is “+/− (+/− = pIC50 <4.00)”.
`O=S(=O)(Nc1cccc2cnccc12)c1ccc(F)cc1F` [Compound 23]: the “SKOV3 Kynurenine cell based assay pIC50” value at IDO is “+ (+ = pIC50 4.00-4.49)”. The “A172 Kynurenine cell based assay pIC50” value on TDO is reported as “+/− (+/− = pIC50 <4.00)”.
As to `CN(c1ccccc1)S(=O)(=O)c1cccc2cnccc12` [Compound 42], the “SKOV3 Kynurenine cell based assay pIC50” value on IDO was “+ (+ = pIC50 4.00-4.49)”. The “A172 Kynurenine cell based assay pIC50” value on TDO is reported as “+ (+ = pIC50 4.00-4.49)”.
Consider `CC(=O)Nc1cc2c(NS(=O)(=O)c3ccccc3)cccc2cn1` [Compound 41], for which the “SKOV3 Kynurenine cell based assay pIC50” value at IDO is “+ (+ = pIC50 4.00-4.49)”. Besides, the “A172 Kynurenine cell based assay pIC50” value on TDO is “+/− (+/− = pIC50 <4.00)”.
For `COc1ccc(S(=O)(=O)Nc2cccc3cnccc23)cc1OC` [Compound 18] the same measures were “+ (+ = pIC50 4.00-4.49)” and “+/− (+/− = pIC50 <4.00)”.
Consider `COc1ccc(S(=O)(=O)Nc2cccc3cnccc23)cc1` [Compound 35], for which the “SKOV3 Kynurenine cell based assay pIC50” value on IDO is “++ (++ = pIC50 4.50-5.49)”. The “A172 Kynurenine cell based assay pIC50” value at TDO is given as “+++ (+++ = pIC50 ≥5.50)”.
`Cc1cccc(S(=O)(=O)Nc2cccc3cnccc23)c1` [Compound 17]: the “SKOV3 Kynurenine cell based assay pIC50” value at IDO is “++ (++ = pIC50 4.50-5.49)”. The “A172 Kynurenine cell based assay pIC50” value on TDO is “+++ (+++ = pIC50 ≥5.50)”.
The corresponding values for `CN1CCOC(C(=O)Nc2cccc3cnccc23)C1` (stereo not drawn) [Compound 8] are “++ (++ = pIC50 4.50-5.49)” and “++ (++ = pIC50 4.50-5.49)”.
On to `O=S(=O)(NC1CCCc2cnccc21)c1ccccc1` (stereo not drawn) [Compound 49], for which the “SKOV3 Kynurenine cell based assay pIC50” value on IDO was “+ (+ = pIC50 4.00-4.49)”. Moreover, at TDO, the “A172 Kynurenine cell based assay pIC50” value is recorded as “+/− (+/− = pIC50 <4.00)”.
The corresponding values for `Cc1ccccc1S(=O)(=O)Nc1cccc2cnccc12` [Compound 27] are “++ (++ = pIC50 4.50-5.49)” and “+++ (+++ = pIC50 ≥5.50)”.
For the compound `CC(C)Oc1ccc(S(=O)(=O)Nc2cccc3ccncc23)cc1` [Compound 53], at IDO, the “SKOV3 Kynurenine cell based assay pIC50” value is listed as “+ (+ = pIC50 4.00-4.49)”. Besides, the “A172 Kynurenine cell based assay pIC50” value at TDO is listed as “+ (+ = pIC50 4.00-4.49)”.
Turning to `O=S(=O)(Nc1cccc2cnccc12)c1ccccc1F` [Compound 21], the “SKOV3 Kynurenine cell based assay pIC50” value on IDO is given as “++ (++ = pIC50 4.50-5.49)”. Moreover, the “A172 Kynurenine cell based assay pIC50” value on TDO is “++ (++ = pIC50 4.50-5.49)”.
Consider `CC(C)Oc1ccc(S(=O)(=O)Nc2cccc3cnccc23)cc1` [Compound 31], for which the “SKOV3 Kynurenine cell based assay pIC50” value on IDO was “+++ (+++ = pIC50 ≥5.50)”. Besides, the “A172 Kynurenine cell based assay pIC50” value on TDO is reported as “+/− (+/− = pIC50 <4.00)”.
As for `O=C(Nc1cncc2ccccc12)c1ccccc1` [Compound 33], the “SKOV3 Kynurenine cell based assay pIC50” value on IDO is “+ (+ = pIC50 4.00-4.49)”. Further, on TDO, the “A172 Kynurenine cell based assay pIC50” value is “+/− (+/− = pIC50 <4.00)”.
Take `O=S(=O)(Nc1cccc2cnccc12)c1cccc(Cl)c1` [Compound 13]: the “SKOV3 Kynurenine cell based assay pIC50” value on IDO is “++ (++ = pIC50 4.50-5.49)”. Also, the “A172 Kynurenine cell based assay pIC50” value on TDO is “++ (++ = pIC50 4.50-5.49)”.
As for `O=S(=O)(NC1CCCc2cnccc21)c1ccc(-c2ccccc2)cc1` (stereo not drawn) [Compound 50], at IDO, the “SKOV3 Kynurenine cell based assay pIC50” value is recorded as “+++ (+++ = pIC50 ≥5.50)”. For the same compound, the “A172 Kynurenine cell based assay pIC50” value on TDO is “+/− (+/− = pIC50 <4.00)”.
For `O=S(=O)(Nc1cncc2ccccc12)c1ccccc1` [Compound 38] the same measures were “+ (+ = pIC50 4.00-4.49)” and “+ (+ = pIC50 4.00-4.49)”.
Take `CN1CCOc2cc(S(=O)(=O)Nc3cccc4cnccc34)ccc21` [Compound 28]: the IC50 at IDO was 3.24 to 31.6 µM; on TDO, at most 3.16 µM.
For `O=S(=O)(Nc1ccc(-c2ccccc2)cc1)c1cccc2cnccc12` [Compound 47], the “SKOV3 Kynurenine cell based assay pIC50” value at IDO is on record as “++ (++ = pIC50 4.50-5.49)”. On TDO, the “A172 Kynurenine cell based assay pIC50” value is recorded as “++ (++ = pIC50 4.50-5.49)”.
For the compound `Cc1ccc(S(=O)(=O)Nc2cccc3cnccc23)cc1` [Compound 10], on IDO, the “SKOV3 Kynurenine cell based assay pIC50” value is reported as “++ (++ = pIC50 4.50-5.49)”. Further, the “A172 Kynurenine cell based assay pIC50” value at TDO is recorded as “+/− (+/− = pIC50 <4.00)”.
Consider `O=C(Nc1ccccc1)c1cccc2cnccc12` [Compound 43], for which the “SKOV3 Kynurenine cell based assay pIC50” value at IDO is “+ (+ = pIC50 4.00-4.49)”. Moreover, the “A172 Kynurenine cell based assay pIC50” value on TDO is “+/− (+/− = pIC50 <4.00)”.
For `O=S(=O)(NC1CCCc2cnccc21)c1ccc(Cl)cc1` (stereo not drawn) [Compound 51], the “SKOV3 Kynurenine cell based assay pIC50” value at IDO is given as “++ (++ = pIC50 4.50-5.49)”. Further, on TDO, the “A172 Kynurenine cell based assay pIC50” value is reported as “+/− (+/− = pIC50 <4.00)”.
For `O=S(=O)(Nc1cccc2cnccc12)c1ccccc1Cl` [Compound 11] the same measures were “++ (++ = pIC50 4.50-5.49)” and “++ (++ = pIC50 4.50-5.49)”.
On to `O=S(=O)(Nc1cccc2ccncc12)c1ccc(Cl)cc1` [Compound 55], for which the “SKOV3 Kynurenine cell based assay pIC50” value on IDO is “++ (++ = pIC50 4.50-5.49)”. Further, at TDO, the “A172 Kynurenine cell based assay pIC50” value is listed as “+ (+ = pIC50 4.00-4.49)”.
Consider `CC(C)Oc1ccc(S(=O)(=O)NC2CCCc3cnccc32)cc1` (stereo not drawn) [Compound 52], for which the values for the IC50 on IDO and at TDO were at most 3.16 µM and above 100 µM, respectively.
Turning to `CS(=O)(=O)N1CCN(c2cccc3cnccc23)CC1` [Compound 45, 5-(4-(methylsulfonyl)piperazin-1-yl)isoquinoline], the results for the IC50 at IDO and on TDO were 32.4 to 100 µM and above 100 µM, respectively.
In the case of `CCCS(=O)(=O)Nc1cccc2cnccc12` [Compound 15], the “SKOV3 Kynurenine cell based assay pIC50” value at IDO is reported as “+/− (+/− = pIC50 <4.00)”. Also, at TDO, the “A172 Kynurenine cell based assay pIC50” value is “++ (++ = pIC50 4.50-5.49)”.
On to `O=S(=O)(Nc1cccc2cnccc12)c1ccc2c(c1)OCCO2` [Compound 19], for which the “SKOV3 Kynurenine cell based assay pIC50” value at IDO is “+++ (+++ = pIC50 ≥5.50)”. Also, on TDO, the “A172 Kynurenine cell based assay pIC50” value is “+++ (+++ = pIC50 ≥5.50)”.
`O=C(Nc1ccc2cnccc2c1)c1ccccc1` [Compound 32]: on IDO, the “SKOV3 Kynurenine cell based assay pIC50” value is given as “+ (+ = pIC50 4.00-4.49)”. At TDO, the “A172 Kynurenine cell based assay pIC50” value is given as “+/− (+/− = pIC50 <4.00)”.
As for `O=S(=O)(Nc1cccc2cnccc12)c1ccc(-c2ccccc2)cc1` [Compound 20], the “SKOV3 Kynurenine cell based assay pIC50” value on IDO is reported as “+++ (+++ = pIC50 ≥5.50)”. In addition, the “A172 Kynurenine cell based assay pIC50” value on TDO is “+++ (+++ = pIC50 ≥5.50)”.
Take `O=S(=O)(Nc1cccc2cnccc12)c1ccc(F)cc1` [Compound 22]: the “SKOV3 Kynurenine cell based assay pIC50” value at IDO is “+ (+ = pIC50 4.00-4.49)”. The “A172 Kynurenine cell based assay pIC50” value on TDO is on record as “+++ (+++ = pIC50 ≥5.50)”.
The corresponding values for `O=S(=O)(Nc1cccc2cnccc12)c1cccc(OC(F)F)c1` [Compound 26] are “++ (++ = pIC50 4.50-5.49)” and “+++ (+++ = pIC50 ≥5.50)”.
